# Reference: publication PMC4890124, “Antimicrobial activity, improved cell selectivity and mode of action of short PMAP-36-derived peptides against bacteria and Candida” (Scientific Reports, 2016)
# Marks after values point to notes of the source that are not given here. Peptide text beside a SMILES is read from it.
# Experiments:
# [1] = test system: Candida tropicalis CGMCC 2.1975; assay: microbe, parasite or virus in culture; assay type: cell-based; settings: CGMCC 2.1975, 48 h; for MFC: read-out: MFC C. tropicalis 2.1975; for MIC: read-out: MIC C. tropicalis 2.1975
# Excerpt: (§1) The antifungal activities were monitored in RPMI-1640 broth medium by a 2-fold microdilution assay according to the Clinical and Laboratory Standards Institute (CLSI) methods. The Candida albicans CGMCC 2.2086, Candida tropicalis CGMCC 2.1975, and Candida krusei CGMCC 2.1857 fungal strains were purchased from the China General Microbiological Culture Collection Center (CGMCC, Beijing, China). Clinically isolated Candida albicans CA2761 was provided by the 4th Affiliated Hospital of Harbin Medical University. Briefly, fungal strains were cultured on YPD agar plates (1% peptone, 0.5% yeast extract, 1% glucose and 2% agar) at 28 °C to prepare Candida suspensions with a turbidity of a 0.5 McFarland standard. A total of 50 μl inoculum cell suspension diluted in RPMI-1640 broth medium was added to an equal volume of peptide solution to achieve a final peptide concentrations ranging from 0.25 μM to 128 μM in a 96-well plate. Pure broth alone or with inoculum suspensions was used as the negative control or the positive control, respectively. The plate was incubated at 28 °C for 48 h. MIC was considered the lowest concentration at which no fungal growth was visually observed under experimental conditions. […] After 48 h incubation at 28 °C, MFC was defined as the lowest concentration of peptides that killed at least 99.9% of the initial inoculums. Experiments were performed in triplicate with three biological replicates.
# [2] = test system: Candida krusei CGMCC 2.1857; assay: microbe, parasite or virus in culture; assay type: cell-based; settings: CGMCC 2.1857, 48 h
# Excerpt: as §1
# [3] = test system: Candida albicans CGMCC 2.2086; assay: microbe, parasite or virus in culture; assay type: cell-based; settings: CGMCC 2.2086, 48 h
# Excerpt: as §1
# [4] = test system: Staphylococcus epidermidis ATCC 12228; assay type: cell-based; settings: ATCC 12228, 18 h
# Description: (§2) The peptide antibacterial activity was determined against both gram-positive and gram-negative bacteria strains, including Escherichia coli ATCC 25922, Escherichia coli UB1005, Salmonella enterica serovar typhimurium C77-31, Staphylococcus aureus ATCC 29213, Staphylococcus aureus ATCC 25923, Bacillus subtilis CMCC 63501, and Staphylococcus epidermidis ATCC 12228. Clinically isolated Escherichia coli EC183 was provided by the 4th Affiliated Hospital of Harbin Medical University. MIC of the peptides was measured using a modified version of the National Committee for Clinical Laboratory Standards (NCCLS) broth microdilution method as described previously. The bacterial strains were inoculated and grown to mid-log phase in fresh Mueller-Hinton broth (MHB) at 37 °C. Bacterial inoculum suspensions were prepared at a final concentration of approximately 1 × 10^5 CFU/ml. Peptides were 2-fold serially diluted to make different concentrations, from 0.5 to 256 μM. Equal volumes of inoculum suspensions were then added to each well of a sterile 96-well plate with different concentrations of peptides, and the plate was incubated for 18 h at 37 °C. Broth with or without bacteria was employed as the positive control or the negative control, respectively. MIC was defined as the lowest concentration of peptides that prevented visible turbidity by visual inspection. […] After overnight incubation at 37 °C, MBC was defined as the lowest concentration of peptides that killed at least 99.9% of the initial inoculums. Experiments were performed in triplicate with three biological replicates.
# [5] = test system: Staphylococcus aureus ATCC 25923; assay type: cell-based; settings: ATCC 25923, 18 h
# Description: as §2
# [6] = test system: Escherichia coli UB1005; assay type: cell-based; settings: UB1005, 18 h
# Description: as §2
# [7] = test system: Escherichia coli ATCC 25922; assay type: cell-based; settings: ATCC 25922, 18 h
# Description: as §2
# [8] = test system: Salmonella enterica serovar typhimurium C77-31; assay type: cell-based; settings: three independent experiments; for MBC S. typhi C77-31: lowest concentration killing at least 99.9% of initial inoculum
# Description: as §2
# [9] = test system: Staphylococcus aureus ATCC 29213; assay type: cell-based; settings: ATCC 29213, 18 h
# Description: as §2
# [10] = test system: Clinically isolated Escherichia coli EC183; assay type: cell-based; settings: Clinically isolated EC183, 18 h
# Description: as §2
# [11] = test system: Bacillus subtilis CMCC 63501; assay type: cell-based; settings: CMCC 63501, 18 h
# Description: as §2
# [12] = test system: C. albicans CA276 (clinical isolate); assay: microbe, parasite or virus in culture; assay type: cell-based, Candida albicans; settings: CA276 (clinical isolate, 48 h)
# Excerpt: as §1
SMILES,MFC [1],MIC [1],MFC C. krusei 2.1857 [2],MIC C. krusei 2.1857 [2],MFC C. albicans 2.2086 [3],MIC C. albicans 2.2086 [3],MBC S. epidermidis 12228 [4],MBC S. aureus 25923 [5],MBC E. coli 1005 [6],MBC E. coli 25922 [7],MBC S. typhi C77-31 [8],MBC S. aureus 29213 [9],MBC E. coli EC183 [10],MIC E. coli EC183 [10],MBC B. subtilis 63501 [11],MIC B. subtilis 63501 [11],MFC C. albicans CA276 [12],MIC C. albicans CA276 [12],also measured
CC[C@H](C)[C@H](NC(=O)[C@H](CCCCN)NC(=O)[C@H](CCCCN)NC(=O)[C@H](CC(C)C)NC(=O)[C@H](CCCNC(=N)N)NC(=O)[C@H](CCCCN)NC(=O)[C@H](CCCNC(=N)N)NC(=O)[C@@H](NC(=O)[C@H](CCCCN)NC(=O)[C@H](CCCCN)NC(=O)[C@H](CCCNC(=N)N)NC(=O)[C@H](CC(C)C)NC(=O)[C@H](CCCNC(=N)N)NC(=O)[C@H](CCCNC(=N)N)NC(=O)[C@H](Cc1ccccc1)NC(=O)[C@H](CCCNC(=N)N)NC(=O)CN)[C@@H](C)O)C(=O)NCC(=O)N[C@@H](CCCCN)C(=O)N[C@H](C(=O)N[C@@H](CC(C)C)C(=O)N[C@@H](CCCCN)C(=O)N[C@@H](Cc1c[nH]c2ccccc12)C(=O)N[C@H](C(=O)N1CCC[C@H]1C(=O)N1CCC[C@H]1C(=O)N[C@H](C(=O)N[C@H](C(=O)NCC(=O)N[C@@H](CO)C(=O)N[C@H](C(=O)N1CCC[C@H]1C(=O)N[C@@H](CC(C)C)C(=O)NCC(=O)N[C@@H](CS)C(=O)NCC(N)=O)[C@@H](C)CC)C(C)C)[C@@H](C)CC)[C@@H](C)CC)C(C)C [PMAP-36] (H-GRFRRLRKKTRKRLKKIGKVLKWIPPIVGSIPLGCG-NH2),2 µM,1 µM,8 µM,8 µM,128 µM,128 µM,4 µM,4 µM,2 ^c (2) μM,4 µM,2 µM,4 µM,1 µM,1 µM,1 (1) μM,1 (1) μM,128 µM,128 µM,–
CC[C@H](C)[C@H](NC(=O)[C@H](Cc1c[nH]c2ccccc12)NC(=O)[C@H](CCCCN)NC(=O)[C@H](CC(C)C)NC(=O)[C@@H](NC(=O)[C@H](CCCCN)NC(=O)CNC(=O)[C@@H](NC(=O)[C@H](CCCCN)NC(=O)[C@H](CCCCN)NC(=O)[C@H](CC(C)C)NC(=O)[C@@H](N)CCCNC(=N)N)[C@@H](C)CC)C(C)C)C(N)=O [RI12] (H-RLKKIGKVLKWI-NH2),–,–,16 µM,16 µM,128 µM,128 µM,64^c (64) μM,128^c (128) μM,32 µM,32 µM,32 µM,128 µM,4 µM,2 µM,8 µM,2 µM,128 µM,128 µM,MFC C. tropicalis 2.1975 [1]: 8 µM; MIC C. tropicalis 2.1975 [1]: 8 µM
CC[C@H](C)[C@H](NC(=O)[C@H](Cc1c[nH]c2ccccc12)NC(=O)[C@H](CCCCN)NC(=O)[C@H](CC(C)C)NC(=O)[C@@H](NC(=O)[C@H](CCCCN)NC(=O)CNC(=O)[C@@H](NC(=O)[C@H](CCCCN)NC(=O)[C@H](CCCCN)NC(=O)[C@H](CC(C)C)NC(=O)[C@H](CCCNC(=N)N)NC(=O)[C@H](CCCCN)NC(=O)[C@H](CCCNC(=N)N)NC(=O)[C@@H](NC(=O)[C@H](CCCCN)NC(=O)[C@H](CCCCN)NC(=O)[C@@H](N)CCCNC(=N)N)[C@@H](C)O)[C@@H](C)CC)C(C)C)C(N)=O [RI18] (H-RKKTRKRLKKIGKVLKWI-NH2),4 µM,2 µM,–,–,–,–,16 µM,8 µM,4 µM,4 µM,4 µM,4 µM,2 µM,1 µM,2 µM,1 µM,–,–,"MFC ([2]; read-out: MFC C. krusei 2.1857): 8 µM; MIC ([2]; read-out: MIC C. krusei 2.1857): 4 µM; MFC ([3]; read-out: MFC C. albicans 2.2086): 32 µM; MIC ([3]; read-out: MIC C. albicans 2.2086): 16 µM; MIC S. epidermidis 12228 [4]: 4 µM; MIC S. aureus 25923 [5]: 8 µM; MIC E. coli 1005 [6]: 2 µM; MIC E. coli 25922 [7]: 2 µM; MIC S. typhi C77-31 ([8]; broth microdilution, MHB, ~1 × 10^5 CFU/ml, 18 h at 37 °C, visual): 2 µM; MIC S. aureus 29213 [9]: 4 µM; MFC [12]: 16 µM; MIC [12]: 8 µM"
